Measured values from ChEMBL document CHEMBL1137140, “Synthesis and biological evaluation of the major metabolite of atomoxetine: elucidation of a partial kappa-opioid agonist effect” (Bioorg Med Chem Lett, 2004).

Legend:
[1] = Inhibitory activity against Opioid receptor mu 1 expressed in HEK293 cells; assay type: cell-based, Homo sapiens
[2] = Inhibitory activity against Opioid receptor delta 1 expressed in HEK293 cells; assay type: cell-based, Homo sapiens
[3] = molecular target: Nociceptin receptor (Homo sapiens, UniProt P41146); assay: Inhibitory activity against Opioid receptor like 1 expressed in HEK293 cells; assay type: cell-based
[4] = Inhibitory activity against Opioid receptor kappa 1 expressed in HEK293 cells; assay type: cell-based, Homo sapiens

Nociceptin receptor, sequence (P41146 whole entry): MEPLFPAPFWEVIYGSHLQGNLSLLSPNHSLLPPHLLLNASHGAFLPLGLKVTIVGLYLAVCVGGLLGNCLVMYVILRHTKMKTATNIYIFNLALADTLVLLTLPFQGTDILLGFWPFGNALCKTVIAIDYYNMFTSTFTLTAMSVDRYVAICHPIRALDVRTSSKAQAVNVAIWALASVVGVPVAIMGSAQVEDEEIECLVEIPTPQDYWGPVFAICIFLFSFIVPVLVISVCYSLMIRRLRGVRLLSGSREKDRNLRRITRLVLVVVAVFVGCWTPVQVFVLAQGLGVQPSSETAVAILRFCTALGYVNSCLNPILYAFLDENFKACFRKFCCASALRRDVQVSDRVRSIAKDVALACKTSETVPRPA

Structure (SMILES) | IC50 [1] [µM] | IC50 [2] [µM] | IC50 [3] [µM] | IC50 [4] [µM]
CNCC[C@@H](Oc1ccccc1C)c1ccccc1 [ATOMOXETINE] | 4.19 | > 5 | > 5 | 4.38
CNCC[C@@H](Oc1ccc(O)cc1C)c1ccccc1 | 0.164 | 1.49 | > 5 | 0.088
